Results from patent publication US12180193B2, “Accelerating fibrosarcoma protein degrading compounds and associated methods of use” (Arvinas Operations, Inc., priority 2020, dated 2024).

Tests used:
[1] = target: T1, BRAF V600E (Homo sapiens, UniProt P15056, V600E); assay: Cellular assay of target protein degradation, T-Rex 293 cells stably transfected with HA-BRAF_V600E (HA immunofluorescence, high content imaging); assay type: cell-based; details: T-Rex 293 HA-BRAF V600E; for DC50: half maximal degradation, read-out: BRaf V600E DC50; for Dmax: maximum degradation observed
T1 construct: expressed in transfected cells
T1 sequence (P15056 whole entry V600E): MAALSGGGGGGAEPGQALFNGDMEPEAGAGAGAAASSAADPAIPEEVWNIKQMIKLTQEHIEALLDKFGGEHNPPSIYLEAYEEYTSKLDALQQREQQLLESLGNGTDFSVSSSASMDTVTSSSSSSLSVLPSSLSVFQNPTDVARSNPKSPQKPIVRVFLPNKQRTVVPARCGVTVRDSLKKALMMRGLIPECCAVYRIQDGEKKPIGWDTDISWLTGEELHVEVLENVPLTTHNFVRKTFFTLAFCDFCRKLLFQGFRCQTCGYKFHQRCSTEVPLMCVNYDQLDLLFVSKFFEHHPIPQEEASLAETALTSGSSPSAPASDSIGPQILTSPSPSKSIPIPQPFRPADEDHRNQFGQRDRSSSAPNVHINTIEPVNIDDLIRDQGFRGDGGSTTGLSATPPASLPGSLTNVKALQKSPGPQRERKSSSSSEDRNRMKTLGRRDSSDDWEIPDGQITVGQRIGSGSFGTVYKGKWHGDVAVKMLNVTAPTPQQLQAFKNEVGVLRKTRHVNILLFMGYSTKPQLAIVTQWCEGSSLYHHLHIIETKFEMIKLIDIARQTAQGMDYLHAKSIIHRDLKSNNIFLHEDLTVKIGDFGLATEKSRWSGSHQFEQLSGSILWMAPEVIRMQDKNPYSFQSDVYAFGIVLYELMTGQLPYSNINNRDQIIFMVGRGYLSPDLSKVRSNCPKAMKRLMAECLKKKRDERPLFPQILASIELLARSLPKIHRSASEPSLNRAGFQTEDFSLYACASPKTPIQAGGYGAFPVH
In short: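 Doxycycline-induced (1 ng/mL) T-Rex 293 cells expressing HA-BRAF V600E treated 24 h at 37 °C with compound at 1 μM to 0.1 nM final in 0.1% DMSO. Remaining HA-tagged protein quantified by fixed-cell anti-HA immunofluorescence and high-content imaging; DC50 and Dmax (% of control) derived.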

[2] = target: T2, BRAF G466V (Homo sapiens, UniProt P15056, G466V); assay: Cellular assay of target protein degradation, T-Rex 293 cells stably transfected with HA-BRAF G466V (HA immunofluorescence, high content imaging); assay type: cell-based; details: T-Rex 293 HA-BRAF G466V; for DC50: half maximal degradation, read-out: BRaf G466V DC50; for Dmax: maximum degradation observed
T2 construct: expressed in transfected cells
T2 sequence (P15056 whole entry G466V): as the sequence (P15056 whole entry V600E) above, with G466V, E600V counted along it
In short: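 Doxycycline-induced (0.75 ng/mL) cells treated 24 h at 37 °C with compound from 30 nM to 3 pM (0.1% DMSO). After fixation and permeabilisation, HA-tagged BRAF G466V immunostained and quantified by high-content imaging. DC50 and Dmax (percent of control) derived.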

| Structure (SMILES) | DC50 [1] [nM] | Dmax [1] [%] | DC50 [2] [nM] | Dmax [2] [%] |
| --- | --- | --- | --- | --- |
| COc1ccc(NS(=O)(=O)N2CC[C@@H](F)C2)c(F)c1C(=O)c1c[nH]c2ncc(-c3ccc(N4CCC(CN5CCC(c6ccc7c(c6)CN([C@H]6CCC(=O)NC6=O)C7=O)CC5)CC4)cc3)cc12 [Compound 212, (3R)—N-{3-[5-(4-{4-[(4-{2-[(3S)-2,6-dioxopiperidin-3-yl]-1-oxo-2,3-dihydro-1H-isoindol-5-yl}piperidin-1-yl)methyl]piperidin-1-yl}phenyl)-1H-pyrrolo[2,3-b]pyridine-3-carbonyl]-2-fluoro-4-methoxyphenyl}-3-fluoropyrrolidine-1-sulfonamide] | 5 to 50 | 35 to 70 | 1 to 10 | > 70 |
| O=C1CCC(N2Cc3cc(N4CC(N5C[C@H]6C[C@@H]5CN6c5ccc(-c6cnc7[nH]cc(C(=O)c8c(F)ccc(NS(=O)(=O)N9CC[C@@H](F)C9)c8F)c7c6)cc5)C4)ccc3C2=O)C(=O)N1 (stereo partly drawn) [Compound 5, (3R)-N-[3-(5-{4-[(1R,4R)-5-{1-[2-(2,6-dioxopiperidin-3-yl)-1-oxo-2,3-dihydro-1H-isoindol-5-yl]azetidin-3-yl}-2,5-diazabicyclo[2.2.1]heptan-2-yl]phenyl}-1H-pyrrolo[2,3-b]pyridine-3-carbonyl)-2,4-difluorophenyl]-3-fluoropyrrolidine-1-sulfonamide] | > 500 |  | 1 to 10 | 35 to 70 |
| O=C1CC[C@H](NC(=O)c2ccc(N3CCN(CCc4ccc(-c5cnc6[nH]cc(C(=O)c7c(F)ccc(NS(=O)(=O)N8CC[C@@H](F)C8)c7F)c6c5)cc4)CC3)cc2F)C(=O)N1 [Compound 27, 4-[4-[2-[4-[3-[2,6-difluoro-3-[[(3R)-3-fluoropyrrolidin-1-yl]sulfonylamino]benzoyl]-1H-pyrrolo[2,3-b]pyridin-5-yl]phenyl]ethyl]piperazin-1-yl]-N-[(3S)-2,6-dioxo-3-piperidyl]-2-fluoro-benzamide] | 5 to 50 | > 70 | 1 to 10 | 35 to 70 |
| CCCS(=O)(=O)Nc1ccc(F)c(C(=O)c2c[nH]c3ncc(-c4ccc(N5CCC(CN6CC7(C6)CN(c6ccc8c(c6)CN([C@@H]6CCC(=O)NC6=O)C8=O)C7)CC5)cc4)cc23)c1F [Compound 229, N-{3-[5-(4-{4-[(6-{2-[(3R)-2,6-dioxopiperidin-3-yl]-1-oxo-2,3-dihydro-1H-isoindol-5-yl}-2,6-diazaspiro[3.3]heptan-2-yl)methyl]piperidin-1-yl}phenyl)-1H-pyrrolo [2,3-b]pyridine-3-carbonyl]-2,4-difluorophenyl} propane-1-sulfonamide] | 5 to 50 | 35 to 70 | 1 to 10 | > 70 |
| O=C1CC[C@H](N2Cc3cc(C[C@H](O)CN4CCC(c5ccc(-c6cnc7[nH]cc(C(=O)c8c(F)ccc(NS(=O)(=O)N9CC[C@@H](F)C9)c8F)c7c6)cc5)CC4)ccc3C2=O)C(=O)N1 [Compound 109, (3R)-N-{3-[5-(4-{1-[(2S)-3-{2-[(3S)-2,6-dioxopiperidin-3-yl]-1-oxo-2,3-dihydro-1H-isoindol-5-yl}-2-hydroxypropyl]piperidin-4-yl}phenyl)-1H-pyrrolo[2,3-b]pyridine-3-carbonyl]-2,4-difluorophenyl}-3-fluoropyrrolidine-1-sulfonamide] | 5 to 50 | 35 to 70 | 1 to 10 | > 70 |
| O=C1CC[C@H](NC(=O)c2ccc(OCCCCN3CCN(c4ccc(-c5cnc6[nH]cc(C(=O)c7c(F)ccc(NS(=O)(=O)N8CC[C@@H](F)C8)c7F)c6c5)cc4)CC3)cc2F)C(=O)N1 [Compound 349, 4-{4-[4-(4-{3-[2,6-difluoro-3-({[(3R)-fluoropyrrolidin-1-yl]sulfonyl}amino)benzoyl]-1H-pyrrolo[2,3-b]pyridin-5-yl}phenyl)piperazin-1-yl]butoxy}-N-[(3S)-2,6-dioxopiperidin-3-yl]-2-fluorobenzamide] | > 500 | > 70 | > 30 |  |
| COc1cc(N2CC3(CC(CN4CCN(c5ccc(-c6cnc7[nH]cc(C(=O)c8c(F)ccc(NS(=O)(=O)N9CC[C@@H](F)C9)c8F)c7c6)cc5)CC4)C3)C2)cc2c1C(=O)N(C1CCC(=O)NC1=O)C2 (stereo partly drawn) [Compound 59, (3R)-N-[3-(5-{4-[4-({2-[2-(2,6-dioxopiperidin-3-yl)-7-methoxy-1-oxo-2,3-dihydro-1H-isoindol-5-yl]-2-azaspiro[3.3]heptan-6-yl}methyl)piperazin-1-yl]phenyl}-1H-pyrrolo[2,3-b]pyridine-3-carbonyl)-2,4-difluorophenyl]-3-fluoropyrrolidine-1-sulfonamide] | 5 to 50 | 35 to 70 | 1 to 10 | > 70 |
| O=C1CC[C@H](N2Cc3cc(N4C[C@H]5CN(CC6CCN(c7ccc(-c8cnc9[nH]cc(C(=O)c%10c(F)ccc(NS(=O)(=O)N%11CC[C@@H](F)C%11)c%10F)c9c8)cc7)CC6)C[C@H]5C4)ccc3C2=O)C(=O)N1 [Compound 57, (3R)-N-(3-{5-[4-(4-{[(3aR,6aS)-5-{2-[(3S)-2,6-dioxopiperidin-3-yl]-1-oxo-2,3-dihydro-1H-isoindol-5-yl}-octahydropyrrolo [3,4-c]pyrrol-2-yl]methyl}piperidin-1-yl)phenyl]-1H-pyrrolo[2,3-b]pyridine-3-carbonyl}-2,4-difluorophenyl)-3-fluoropyrrolidine-1-sulfonamide] | < 5 | 35 to 70 | < 1 | > 70 |
| O=C1CCC(N2Cc3cc(N4CC(CN5CCC(Cc6ccc(-c7cnc8[nH]cc(C(=O)c9c(F)ccc(NS(=O)(=O)N%10CC[C@@H](F)C%10)c9F)c8c7)cc6)CC5)C4)ccc3C2=O)C(=O)N1 (stereo partly drawn) [Compound 303, (3R)-N-{3-[5-(4-{[1-({1-[2-(2,6-dioxopiperidin-3-yl)-1-oxo-2,3-dihydro-1H-isoindol-5-yl]azetidin-3-yl}methyl)piperidin-4-yl]methyl}phenyl)-1H-pyrrolo[2,3-b]pyridine-3-carbonyl]-2,4-difluorophenyl}-3-fluoropyrrolidine-1-sulfonamide] | 5 to 50 | 35 to 70 | 1 to 10 | > 70 |

Now from value to compound:

| DC50 [1] [nM] | Dmax [1] [%] | DC50 [2] [nM] | Dmax [2] [%] | Structure (SMILES) |
| --- | --- | --- | --- | --- |
| 5 to 50 | 35 to 70 | 1 to 10 | > 70 | Cn1c(=O)n(C2CCC(=O)NC2=O)c2cccc(C3CCN(CC4CCN(c5ccc(-c6cnc7[nH]cc(C(=O)c8c(F)ccc(NS(=O)(=O)N9CC[C@@H](F)C9)c8F)c7c6)cc5)CC4)CC3)c21 (stereo partly drawn) [Compound 337, (3R)—N-(3-(5-(4-(4-((4-(1-(2,6-dioxopiperidin-3-yl)-3-methyl-2-oxo-2,3-dihydro-1H-benzo[d]imidazol-4-yl)piperidin-1-yl)methyl)piperidin-1-yl)phenyl)-1H-pyrrolo[2,3-b]pyridine-3-carbonyl)-2,4-difluorophenyl)-3-fluoropyrrolidine-1-sulfonamide] |
| 5 to 50 | 35 to 70 | < 1 | 35 to 70 | O=C1CC[C@H](N2Cc3cc(C4CCN(CC5CCN(c6ccc(-c7cnc8[nH]cc(C(=O)c9c(F)ccc(NS(=O)(=O)N%10CC[C@@H](F)C%10)c9Cl)c8c7)cc6)CC5)CC4)ccc3C2=O)C(=O)N1 [Compound 252, (3R)-N-{2-chloro-3-[5-(4-{4-[(4-{2-[(3S)-2,6-dioxopiperidin-3-yl]-1-oxo-2,3-dihydro-1H-isoindol-5-yl}piperidin-1-yl)methyl]piperidin-1-yl}phenyl)-1H-pyrrolo [2,3-b]pyridine-3-carbonyl]-4-fluorophenyl}-3-fluoropyrrolidine-1-sulfonamide] |
| 5 to 50 | 35 to 70 | 1 to 10 | > 70 | CCCS(=O)(=O)Nc1ccc(F)c(C(=O)c2c[nH]c3ncc(-c4ccc(N5CCC(CN6CCN(c7ccc8c(c7)CN([C@H]7CCC(=O)NC7=O)C8=O)CC6)CC5)cc4)cc23)c1F [Compound 245, N-{3-[5-(4-{4-[(4-{2-[(3S)-2,6-dioxopiperidin-3-yl]-1-oxo-2,3-dihydro-1H-isoindol-5-yl}piperazin-1-yl)methyl]piperidin-1-yl}phenyl)-1H-pyrrolo[2,3-b]pyridine-3-carbonyl]-2,4-difluorophenyl}propane-1-sulfonamide] |
| > 500 |  | < 1 | 35 to 70 | O=C1CCC(N2Cc3cc(N4CCC(CN5CCC6(CCN(c7ccc(-c8cnc9[nH]cc(C(=O)c%10c(F)ccc(NS(=O)(=O)N%11CC[C@@H](F)C%11)c%10F)c9c8)cn7)CC6)C5)CC4)ccc3C2=O)C(=O)N1 (stereo partly drawn) [Compound 95, (3R)-N-[3-(5-{6-[2-({1-[2-(2,6-dioxopiperidin-3-yl)-1-oxo-2,3-dihydro-1H-isoindol-5-yl]piperidin-4-yl}methyl)-2,8-diazaspiro[4.5]decan-8-yl]pyridin-3-yl}-1H-pyrrolo[2,3-b]pyridine-3-carbonyl)-2,4-difluorophenyl]-3-fluoropyrrolidine-1-sulfonamide] |
| 5 to 50 | 35 to 70 | 1 to 10 | > 70 | O=C1CC[C@@H](N2Cc3cc(OC[C@H](O)CN4CC5(C4)CN(c4ccc(-c6cnc7[nH]cc(C(=O)c8c(F)ccc(NS(=O)(=O)N9CC[C@@H](F)C9)c8F)c7c6)cc4)C5)ccc3C2=O)C(=O)N1 [Compound 124, (3R)—N-[3-[5-[4-[6-[(2R)-3-[2-[(3R)-2,6-dioxo-3-piperidyl]-1-oxo-isoindolin-5-yl]oxy-2-hydroxy-propyl]-2,6-diazaspiro[3.3]heptan-2-yl]phenyl]-1H-pyrrolo[2,3-b]pyridine-3-carbonyl]-2,4-difluoro-phenyl]-3-fluoro-pyrrolidine-1-sulfonamide] |
